In general, IC50 refers to the concentration that gives 50% inhibition.

The structures appear in SMILES notation.

This test deals with T1, CYP11A1 (Homo sapiens, UniProt P05108).
T1 construct: human H295R adrenocortical carcinoma cell line was used as source of enzyme; endogenous in cells; host or cells: H295R human adrenocortical carcinoma cells
T1 sequence (P05108 40-521): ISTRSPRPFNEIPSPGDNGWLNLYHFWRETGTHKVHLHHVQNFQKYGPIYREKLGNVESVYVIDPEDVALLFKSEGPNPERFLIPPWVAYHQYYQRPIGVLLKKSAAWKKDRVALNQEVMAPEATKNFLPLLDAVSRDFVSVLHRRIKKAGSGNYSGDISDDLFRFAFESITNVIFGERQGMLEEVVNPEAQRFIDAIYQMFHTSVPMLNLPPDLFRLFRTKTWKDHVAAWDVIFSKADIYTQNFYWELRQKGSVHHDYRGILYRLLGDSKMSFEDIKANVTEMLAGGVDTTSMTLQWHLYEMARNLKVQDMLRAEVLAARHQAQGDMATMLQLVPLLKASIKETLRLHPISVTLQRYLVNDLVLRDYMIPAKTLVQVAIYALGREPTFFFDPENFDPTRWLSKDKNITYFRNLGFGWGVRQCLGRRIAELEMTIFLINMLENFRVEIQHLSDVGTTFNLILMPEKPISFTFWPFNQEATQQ
Nature of the test: CYP11A1 inhibition: modified isocaproic acid release assay (IARA) in H295R cells. It counts as cell-based. The following applies: human H295R adrenocortical carcinoma cells treated three days, 3 nM [24,25-3H]-labelled cholesterol, 1% DMSO, 10 concentrations in duplicates; read-out: IC50 of the test compounds on CYP11A1 inhibition. In a few lines:
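Cholesterol side-chain cleavage followed as tritiated isocaproic acid in charcoal-extracted medium, counted by scintillation. Substrate was 3 nM [24,25-3H]-cholesterol on human H295R cells exposed for three days to ten compound concentrations (duplicates, 1% DMSO); IC50 derived.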
With `O=C(c1ccc(COc2coc(CN3Cc4ccccc4C3)cc2=O)cc1)N1CCCC(O)C1` (centres unmarked) [Compound 160, 5-((4-(3-Hydroxypiperidine-1-carbonyl)benzyl)oxy)-2-(isoindolin-2-ylmethyl)-4H-pyran-4-one], the IC50 was 301 to 2000 nM. Turning to `C[S+]([O-])c1ccc(COc2coc(CN3Cc4ccccc4C3)cc2=O)cc1` (centres unmarked) [Compound 81, 2-(Isoindolin-2-ylmethyl)-5-((4-(methylsulfinyl)benzyl)oxy)-4H-pyran-4-one], the IC50 lay within 150 to 300 nM. As to `N#Cc1ccc(COc2coc(CN3CCc4ccccc4C3)cc2=O)cc1Cl` [Compound 118, 2-Chloro-4-(((6-((3,4-dihydroisoquinolin-2(1H)-yl)methyl)-4-oxo-4H-pyran-3-yl)oxy)methyl)benzonitrile], the IC50 lay in the range of 301 to 2000 nM. In the case of `O=C(NCCCO)c1ccc(COc2coc(CN3Cc4ccccc4C3)cc2=O)cc1` [Compound 282, N-(3-Hydroxypropyl)-4-(((6-(isoindolin-2-ylmethyl)-4-oxo-4H-pyran-3-yl)oxy)methyl)benzamide], the IC50 fell in the range of 301 to 2000 nM. The value for `CN(C)C(=O)c1ccc(COc2coc(CN3Cc4ccc(C(F)(F)F)cc4C3)cc2=O)cc1` [Compound 139, N,N-Dimethyl-4-(((4-oxo-6-((5-(trifluoromethyl)isoindolin-2-yl)methyl)-4H-pyran-3-yl)oxy)methyl)benzamide] was < 150 nM; that for `O=c1cc(CN2Cc3ccccc3C2)occ1OCc1cccc([N+](=O)[O-])c1` [Compound 105, 2-(Isoindolin-2-ylmethyl)-5-((3-nitrobenzyl)oxy)-4H-pyran-4-one] was 301 to 2000 nM; that for `COC(=O)[C@H]1CC[C@H](COc2coc(CN3Cc4ccccc4C3)cc2=O)CC1` [Compound 178, Methyl (1r,4r)-4-(((6-(isoindolin-2-ylmethyl)-4-oxo-4H-pyran-3-yl)oxy)methyl)-cyclohexane-1-carboxylate] was 301 to 2000 nM. The value for `CS(=O)(=O)N1CCC(COc2coc(CN3Cc4cc(F)c(F)cc4C3)cc2=O)CC1` [Compound 210, 2-((5,6-Difluoroisoindolin-2-yl)methyl)-5-((1-(methylsulfonyl)piperidin-4-yl)methoxy)-4H-pyran-4-one] was 150 to 300 nM. The value for `COc1ccc(COc2coc(CN3Cc4ccccc4C3)cc2=O)cn1` [Compound 76, 2-(Isoindolin-2-ylmethyl)-5-((6-methoxypyridin-3-yl)methoxy)-4H-pyran-4-one] was 301 to 2000 nM; that for `CC(C)(C)OC(=O)N1CC[C@@H](COc2coc(CN3Cc4ccccc4C3)cc2=O)C1` [Compound 199, (R)-tert-Butyl 3-(((6-(isoindolin-2-ylmethyl)-4-oxo-4H-pyran-3-yl)oxy)methyl)-pyrrolidine-1-carboxylate] was 150 to 300 nM. As to `CN(C)C(=O)/C=C/c1ccc(COc2coc(CN3Cc4ccccc4C3)cc2=O)cc1` [Compound 146, (E)-3-(4-(((6-(Isoindolin-2-ylmethyl)-4-oxo-4H-pyran-3-yl)oxy)methyl)phenyl)-N,N-dimethylacrylamide], the IC50 was < 150 nM.

As for `CC(C)(C)NC(=O)c1ccc(COc2coc(CN3Cc4ccccc4C3)cc2=O)cc1` [Compound 131, N-(tert-Butyl)-4-(((6-(isoindolin-2-ylmethyl)-4-oxo-4H-pyran-3-yl)oxy)methyl)-benzamide], the IC50 was < 150 nM. On to `CCS(=O)(=O)N1CCC(COc2coc(CN3Cc4ccc(F)cc4C3)cc2=O)CC1` [Compound 189, 5-((1-(Ethylsulfonyl)piperidin-4-yl)methoxy)-2-((5-fluoroisoindolin-2-yl)methyl)-4H-pyran-4-one], for which the IC50 was < 150 nM. In the case of `CN(C)S(=O)(=O)N1CCC(COc2coc(CN3Cc4ccc(F)cc4C3)cc2=O)CC1` [Compound 230, 4-(((6-((5-Fluoroisoindolin-2-yl)methyl)-4-oxo-4H-pyran-3-yl)oxy)methyl)-N,N-dimethylpiperidine-1-sulfonamide] it was < 150 nM.

For the origin of these results see patent US11098032B2, “Pyran dervatives as CYP11A1 (cytochrome P450 monooxygenase 11A1) inhibitors” (ORION CORPORATION, priority 2016, dated 2021).
